Consider ten compounds from patent EP4664463A1, “COMPUTER-IMPLEMENTED METHOD FOR OLFACTORY PROPERTY PREDICTION” (Givaudan SA, priority 2024, dated 2025).

In series [1] the target is T1, OR9Q2 (Homo sapiens, UniProt Q8NGE9).
T1 construct: expressed in transfected cells; host or cells: HEK293T cells stably expressing human RTP1S (V227I) and RTP2 (L220R)
Briefly: Luciferase dose-response, wild-type vs changed C-terminus (SEQ ID NO: 86). Type of series: cell-based. As to conditions: changed C-term SEQ ID NO: 86; read-out: Potency EC50.
T1 sequence (Q8NGE9 with tags, fused parts or gaps): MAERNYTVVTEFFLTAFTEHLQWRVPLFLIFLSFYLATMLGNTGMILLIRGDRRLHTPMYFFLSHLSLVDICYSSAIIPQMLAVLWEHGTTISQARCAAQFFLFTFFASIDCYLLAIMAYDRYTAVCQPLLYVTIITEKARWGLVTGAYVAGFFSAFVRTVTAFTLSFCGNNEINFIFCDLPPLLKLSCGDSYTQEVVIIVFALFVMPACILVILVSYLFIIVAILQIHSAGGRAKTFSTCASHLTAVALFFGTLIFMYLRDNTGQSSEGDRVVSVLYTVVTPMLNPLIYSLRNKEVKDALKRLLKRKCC

Series [2] deals with T2, OR9Q2 (Homo sapiens, UniProt Q8NGE9).
T2 construct: expressed in transfected cells; host or cells: HEK293T cells stably expressing human RTP1S (V227I) and RTP2 (L220R)
Described as above. Type of series: cell-based. The following applies: wild-type; read-out: Potency EC50.
T2 sequence (Q8NGE9 whole entry): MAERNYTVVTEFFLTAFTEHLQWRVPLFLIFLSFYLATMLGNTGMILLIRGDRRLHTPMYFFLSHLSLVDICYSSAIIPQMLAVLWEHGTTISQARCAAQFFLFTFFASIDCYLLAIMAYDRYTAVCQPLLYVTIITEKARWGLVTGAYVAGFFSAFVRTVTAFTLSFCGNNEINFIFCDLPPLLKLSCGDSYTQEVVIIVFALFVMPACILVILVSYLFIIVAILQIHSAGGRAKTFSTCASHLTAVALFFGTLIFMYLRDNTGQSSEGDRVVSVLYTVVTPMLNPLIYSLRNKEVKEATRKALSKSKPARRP

Series [3] has as its target T3, OR identified in the library screening (receptor named per line) (Homo sapiens, UniProt Q8NGC4, S73G).
T3 construct: expressed in transfected cells; host or cells: HEK293T stably expressing human RTP1S(V227I) and RTP2(L220R) (general method)
The series is described as follows: Confirmatory dose-response of library hits, wild-type OR vs OR with C-terminus SEQ ID NO: 221 (Table 17). Type of series: cell-based. As to conditions: receptor OR10G3(S73G), wild-type sequence; read-out: Potency EC50 wild-type (converted).
Experimental: (§2) Selected ligand - OR pairs were then tested in a confirmatory test with a dose response analysis.
(§3) Dose-response analysis with the cognate ligand was then performed for both the wild-type and the modified sequence.

Series [4] addresses T4, OR identified in the library screening (receptor named per line) (Homo sapiens, UniProt Q8NGG4).
T4 construct: expressed in transfected cells; host or cells: HEK293T stably expressing human RTP1S(V227I) and RTP2(L220R) (general method)
The series is described as above. It is filed as cell-based. As to conditions: receptor OR8H1, wild-type sequence; read-out: Potency EC50 wild-type (converted).
Experimental: as §2, §3

For series [5], the target named is T5, OR identified in the library screening (receptor named per line) (Homo sapiens, UniProt Q8WZ84).
T5 construct: expressed in transfected cells; host or cells: HEK293T stably expressing human RTP1S(V227I) and RTP2(L220R) (general method)
The series is described as above. The following applies: receptor OR8D1, wild-type sequence; read-out: Potency EC50 wild-type (converted). It is filed as cell-based.
Experimental: as §2, §3

Series [6] has as its target T6, OR identified in the library screening (receptor named per line) (Homo sapiens, UniProt Q8NGN4).
T6 construct: expressed in transfected cells; host or cells: HEK293T stably expressing human RTP1S(V227I) and RTP2(L220R) (general method)
The series is described as above. Type of series: cell-based. The following applies: receptor OR10G9, wild-type sequence; read-out: Potency EC50 wild-type (converted).
Experimental: as §2, §3

Series [7] concerns the target T7, OR1N2 (Homo sapiens, UniProt Q8NGR9).
T7 construct: expressed in transfected cells; host or cells: HEK293T cells stably expressing human RTP1S (V227I) and RTP2 (L220R)
Type of series: cell-based. As to conditions: wild-type. The text has this:
(§1) To create an expression plasmid, an OR coding sequence fused at the end of TM7 to the desired C-terminus sequence was synthesized by a DNA synthesis service provider (BioCat GmbH, Germany) and inserted into pcDNA3.1(+) (Invitrogen, MA, USA) downstream of the CMV promoter sequence (SEQ ID NO: 82) using BamHI and Notl restriction sites. All the synthetic OR nucleotide sequences described below in Examples 1-15 further contained at their N-terminus a nucleotide sequence encoding a signal peptide (mmLucy-FLAG-rho, SeQ ID NOs: 80, 81) and at the C-terminus the bgh terminator sequence (SEQ ID NO: 83). All the OR expression plasmids also contain a Kozak sequence (GCCACC) between the BamHI restriction site and the start codon of the signal peptide. These plasmids thus contain a constitutively expressed OR gene.
T7 sequence (Q8NGR9 whole entry): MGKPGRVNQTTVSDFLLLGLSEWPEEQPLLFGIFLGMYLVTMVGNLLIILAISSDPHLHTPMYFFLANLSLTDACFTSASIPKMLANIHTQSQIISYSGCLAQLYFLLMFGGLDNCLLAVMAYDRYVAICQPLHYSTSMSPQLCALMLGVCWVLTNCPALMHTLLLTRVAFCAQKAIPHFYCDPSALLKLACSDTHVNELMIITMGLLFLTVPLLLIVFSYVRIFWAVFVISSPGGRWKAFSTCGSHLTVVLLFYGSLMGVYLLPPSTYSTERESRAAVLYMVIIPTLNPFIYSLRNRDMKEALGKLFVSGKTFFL

Series [8] has as its target T8, OR1N2 (Homo sapiens, UniProt Q8NGR9).
T8 construct: expressed in transfected cells; host or cells: HEK293T cells stably expressing human RTP1S (V227I) and RTP2 (L220R)
It is filed as cell-based. As to conditions: changed C-term. SEQ ID NO: 86.
Excerpt: as §1
T8 sequence (Q8NGR9 with tags, fused parts or gaps): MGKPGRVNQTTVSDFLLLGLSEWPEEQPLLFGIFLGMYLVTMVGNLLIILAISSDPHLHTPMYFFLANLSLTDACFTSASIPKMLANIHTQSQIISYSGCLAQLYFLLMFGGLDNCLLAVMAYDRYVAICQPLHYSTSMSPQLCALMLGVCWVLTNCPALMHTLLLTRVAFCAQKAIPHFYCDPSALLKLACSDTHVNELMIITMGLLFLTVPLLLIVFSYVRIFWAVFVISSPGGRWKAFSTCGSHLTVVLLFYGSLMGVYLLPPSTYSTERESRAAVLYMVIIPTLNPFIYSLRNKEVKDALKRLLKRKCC

Series [9] concerns the target T9, OR identified in the library screening (receptor named per line) (Homo sapiens, UniProt Q8NGX5).
T9 construct: expressed in transfected cells; host or cells: HEK293T stably expressing human RTP1S(V227I) and RTP2(L220R) (general method)
The series is described as follows: Confirmatory dose-response of library hits, wild-type OR vs OR with C-terminus SEQ ID NO: 221 (Table 17). Type of series: cell-based. As to conditions: receptor OR10K1, wild-type sequence; read-out: Potency EC50 wild-type (converted).
Experimental: as §2, §3

The target in series [10] is T10, OR identified in the library screening (receptor named per line) (Homo sapiens, UniProt Q8NG80).
T10 construct: expressed in transfected cells; host or cells: HEK293T stably expressing human RTP1S(V227I) and RTP2(L220R) (general method)
The description is as above. Type of series: cell-based. As to conditions: receptor OR2L5, wild-type sequence; read-out: Potency EC50 wild-type (converted).
Experimental: as §2, §3

The target of series [11] is T11, OR identified in the library screening (receptor named per line) (Homo sapiens, UniProt Q8NGJ0).
T11 construct: expressed in transfected cells; host or cells: HEK293T stably expressing human RTP1S(V227I) and RTP2(L220R) (general method)
The description is as above. Type of series: cell-based.
Experimental: as §2, §3

The target of series [12] is T12, OR52A5 (Homo sapiens, UniProt Q9H2C5).
T12 construct: expressed in transfected cells; host or cells: HEK293T cells stably expressing human RTP1S (V227I) and RTP2 (L220R)
Briefly: cell-based. Type of series: cell-based.
T12 sequence (Q9H2C5 with tags, fused parts or gaps): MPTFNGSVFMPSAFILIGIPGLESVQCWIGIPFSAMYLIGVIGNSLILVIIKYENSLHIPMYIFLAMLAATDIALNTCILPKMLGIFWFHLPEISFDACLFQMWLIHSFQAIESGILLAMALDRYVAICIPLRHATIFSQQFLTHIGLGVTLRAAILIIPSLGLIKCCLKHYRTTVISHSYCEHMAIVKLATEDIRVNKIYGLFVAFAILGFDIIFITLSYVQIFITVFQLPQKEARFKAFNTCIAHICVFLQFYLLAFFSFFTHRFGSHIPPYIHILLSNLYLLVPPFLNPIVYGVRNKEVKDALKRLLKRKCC

Series [13] concerns OR52A5. The series is described as follows: cell-based. It is filed as cell-based, human.
Series [14] addresses T13, OR52A5 (Homo sapiens, UniProt Q9H2C5).
T13 construct: expressed in transfected cells; host or cells: HEK293T cells stably expressing human RTP1S (V227I) and RTP2 (L220R)
The series is described as follows: cell-based. It is filed as cell-based. The source holds these as a separate data set.
T13 sequence (Q9H2C5 whole entry): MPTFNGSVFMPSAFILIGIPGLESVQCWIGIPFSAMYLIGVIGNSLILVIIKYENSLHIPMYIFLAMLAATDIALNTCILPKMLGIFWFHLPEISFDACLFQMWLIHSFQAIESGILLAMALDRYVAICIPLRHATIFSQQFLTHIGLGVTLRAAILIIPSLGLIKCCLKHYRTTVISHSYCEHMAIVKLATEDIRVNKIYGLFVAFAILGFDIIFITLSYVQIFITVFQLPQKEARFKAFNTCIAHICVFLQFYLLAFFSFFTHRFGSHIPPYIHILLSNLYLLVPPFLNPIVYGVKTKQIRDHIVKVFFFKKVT

Each structure is given as a SMILES string. Read-outs that look alike come from different tables or passages of the source.

T3 sequence (Q8NGC4 whole entry S73G): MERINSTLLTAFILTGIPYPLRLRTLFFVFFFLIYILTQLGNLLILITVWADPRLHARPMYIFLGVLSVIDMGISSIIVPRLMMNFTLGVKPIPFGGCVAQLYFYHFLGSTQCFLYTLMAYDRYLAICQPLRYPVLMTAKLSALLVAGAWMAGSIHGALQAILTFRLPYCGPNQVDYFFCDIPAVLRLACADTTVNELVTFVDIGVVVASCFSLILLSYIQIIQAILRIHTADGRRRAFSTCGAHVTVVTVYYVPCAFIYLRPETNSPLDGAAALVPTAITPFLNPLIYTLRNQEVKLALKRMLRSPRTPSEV

By EC50 is commonly meant the concentration at which the effect is half-maximal. `Cc1ccc(O)cc1` [Para-Cresol]: the results for the EC50 on OR9Q2 [1] and at OR9Q2 [2] were 2.8 µM and 30.7 µM, respectively.
As to `COc1cc(C=O)ccc1O` [Vanillin], in series [3], the EC50 is 261 µM.
On to `N#CC(=C1CCCCC1)c1ccccc1` [Peonile], for which the EC50 in series [4] is 17.3 µM.
As to `CC1=C(O)C(=O)OC1C` (stereo not shown) [Sotolon e], the EC50 in [5] was 19 µM.
As for `CCOc1cc(C)ccc1O` [Ultravan il], the EC50 in series [6] is 91.4 µM.
For `O=C1CCCCCCCC=CCCCCCCO1` [Ambrettolide], the “Detection threshold; concentration for 2-fold induction” value at OR1N2 [7] is reported as 1.33 µM; at OR1N2 [8], 0.26 µM.
Take `CC(C)CCc1ccc2c(c1)OCC(=O)CO2` [7-(3-Methylbutyl)-benzo[b][1,4]dioxepin-3-one]: the EC50 in series [9] was 6.8 µM.
Regarding `CCOC(=O)C1CCCCC1` [Ethyl cyclohexanecarboxylate (Esterly), Ethyl cyclohexanecarboxylate], the EC50 in [10] was 115 µM.
On to `CC(=O)/C=C/C1=C(C)CCCC1(C)C` [β-lonone], for which the EC50 in series [11] was found to be 48.3 µM.
For `CCCCC(CC)CCC(=O)O` (stereo not shown) [4-ethyloctanoic acid], the “Detection threshold; concentration for 2-fold induction” value on OR52A5 [12] is 101 µM. Also, the EC50 on OR52A5 [12] (changed C-term SEQ ID NO: 86, read-out: Potency EC50) was 300 µM. Besides, in the series with OR52A5 [13], the Comments on efficacy was 2.5-fold lower maximal induction for wild-type and the Fold-improvement threshold is over 10. The “Detection threshold; concentration for 2-fold induction” value on OR52A5 [14] is over 1000 µM.
